Reference: US9265253B2, “Use of macrocyclic picolinamides as fungicides” (DOW AGROSCIENCES LLC, priority 2013, dated 2016)

How the values were obtained:
Type in all cases: in vivo
Uncinula necator = test: Grape Powdery Mildew (UNCINE) disease control; settings: 1 Day Protectant; for pest or weed control at 100 ppm: Erysiphe necator, topical, 24 h, read-out: Disease Control UNCINE 1 DP
Experimental: Technical grades of materials were dissolved in acetone, which were then mixed with nine volumes of water containing 110 ppm Triton X-100. The fungicide solutions were applied onto wheat seedlings using an automated booth sprayer to run-off. All sprayed plants were allowed to air dry prior to further handling. All fungicides were evaluated using the aforementioned method for their activity vs. all target diseases. Wheat leaf blotch and brown rust activity were also evaluated using track spray applications, in which case the fungicides were formulated as EC formulations, containing 0.1% Trycol 5941 in the spray solutions. Wheat plants (variety Yuma) were grown from seed in a greenhouse in 50% mineral soil/50% soil-less Metro mix until the first leaf was fully emerged, with 7-10 seedlings per pot. These plants were inoculated with an aqueous spore suspension of Septoria tritici either prior to or after fungicide treatments. After inoculation the plants were kept in 100% relative humidity (one day in a dark dew chamber followed by two to three days in a lighted dew chamber at 20° C.) to permit spores to germinate and infect the leaf. The plants were then transferred to a greenhouse set at 20° C. for disease to develop. When disease symptoms were fully expressed on the 1st leaves of untreated plants, infection levels were assessed on a scale of 0 to 100 percent disease severity. Percent disease control was calculated using the ratio of disease severity on treated plants relative to untreated plants. Grape seedlings (variety Carignane) were grown in soil-less Metro mix, with one plant per pot, and used in the test when approximately one month old. Plants were inoculated 24 hr after fungicide treatment by shaking spores from infected leaves over test plants. Plants were maintained in a greenhouse set at 20° C. until disease was fully developed. Fungicide formulation, application and disease assessment on the sprayed leaves followed the procedures as described in the Example A.

Cercospora beticola = test: Leaf Spot of Sugar Beets (CERCBE) disease control; settings: 1 Day Protectant, sugar beet; for pest or weed control at 100 ppm: Cercospora beticola, topical, 24 h, read-out: Disease Control CERCBE 1 DP
Experimental: Technical grades of materials were dissolved in acetone, which were then mixed with nine volumes of water containing 110 ppm Triton X-100. The fungicide solutions were applied onto wheat seedlings using an automated booth sprayer to run-off. All sprayed plants were allowed to air dry prior to further handling. All fungicides were evaluated using the aforementioned method for their activity vs. all target diseases. Wheat leaf blotch and brown rust activity were also evaluated using track spray applications, in which case the fungicides were formulated as EC formulations, containing 0.1% Trycol 5941 in the spray solutions. Wheat plants (variety Yuma) were grown from seed in a greenhouse in 50% mineral soil/50% soil-less Metro mix until the first leaf was fully emerged, with 7-10 seedlings per pot. These plants were inoculated with an aqueous spore suspension of Septoria tritici either prior to or after fungicide treatments. After inoculation the plants were kept in 100% relative humidity (one day in a dark dew chamber followed by two to three days in a lighted dew chamber at 20° C.) to permit spores to germinate and infect the leaf. The plants were then transferred to a greenhouse set at 20° C. for disease to develop. When disease symptoms were fully expressed on the 1st leaves of untreated plants, infection levels were assessed on a scale of 0 to 100 percent disease severity. Percent disease control was calculated using the ratio of disease severity on treated plants relative to untreated plants. Sugar beet plants (variety HH88) were grown in soil-less Metro mix and trimmed regularly to maintain a uniform plant size prior to test. Plants were inoculated with a spore suspension 24 hr after fungicide treatments. Inoculated plants were kept in a dew chamber at 22° C. for 48 hr then incubated in a greenhouse set at 24° C. under a clear plastic hood with bottom ventilation until disease symptoms were fully expressed. Fungicide formulation, application and disease assessment on the sprayed leaves followed the procedures as described in the Example A.

Rhyncosporium secalis = test: Barley Scald (RHYNSE) disease control; settings: 1 Day Protectant; for pest or weed control at 100 ppm: Hordeum vulgare, 24 h, read-out: Disease Control RHYNSE 1 DP
Experimental: Technical grades of materials were dissolved in acetone, which were then mixed with nine volumes of water containing 110 ppm Triton X-100. The fungicide solutions were applied onto wheat seedlings using an automated booth sprayer to run-off. All sprayed plants were allowed to air dry prior to further handling. All fungicides were evaluated using the aforementioned method for their activity vs. all target diseases. Wheat leaf blotch and brown rust activity were also evaluated using track spray applications, in which case the fungicides were formulated as EC formulations, containing 0.1% Trycol 5941 in the spray solutions. Wheat plants (variety Yuma) were grown from seed in a greenhouse in 50% mineral soil/50% soil-less Metro mix until the first leaf was fully emerged, with 7-10 seedlings per pot. These plants were inoculated with an aqueous spore suspension of Septoria tritici either prior to or after fungicide treatments. After inoculation the plants were kept in 100% relative humidity (one day in a dark dew chamber followed by two to three days in a lighted dew chamber at 20° C.) to permit spores to germinate and infect the leaf. The plants were then transferred to a greenhouse set at 20° C. for disease to develop. When disease symptoms were fully expressed on the 1st leaves of untreated plants, infection levels were assessed on a scale of 0 to 100 percent disease severity. Percent disease control was calculated using the ratio of disease severity on treated plants relative to untreated plants. Barley seedlings (variety Harrington) were propagated in soil-less Metro mix, with each pot having 8 to 12 plants, and used in the test when first leaf was fully emerged. Test plants were inoculated by an aqueous spore suspension of Rhyncosporium secalis 24 hr after fungicide treatments. After inoculation the plants were kept in a dew room at 20° C. with 100% relative humidity for 48 hr. The plants were then transferred to a greenhouse set at 20° C. for disease to develop. Fungicide formulation, application and disease assessment on the sprayed leaves followed the procedures as described in the Example A.

[1] = system: Glomerella lagenarium; Anamorph: Colletotrichum lagenarium; test: Cucumber Anthracnose (COLLLA) disease control; settings: 1 Day Protectant; for pest or weed control at 100 ppm: Colletotrichum orbiculare, topical, 24 h, read-out: Disease Control COLLLA 1 DP
Experimental: Technical grades of materials were dissolved in acetone, which were then mixed with nine volumes of water containing 110 ppm Triton X-100. The fungicide solutions were applied onto wheat seedlings using an automated booth sprayer to run-off. All sprayed plants were allowed to air dry prior to further handling. All fungicides were evaluated using the aforementioned method for their activity vs. all target diseases. Wheat leaf blotch and brown rust activity were also evaluated using track spray applications, in which case the fungicides were formulated as EC formulations, containing 0.1% Trycol 5941 in the spray solutions. Wheat plants (variety Yuma) were grown from seed in a greenhouse in 50% mineral soil/50% soil-less Metro mix until the first leaf was fully emerged, with 7-10 seedlings per pot. These plants were inoculated with an aqueous spore suspension of Septoria tritici either prior to or after fungicide treatments. After inoculation the plants were kept in 100% relative humidity (one day in a dark dew chamber followed by two to three days in a lighted dew chamber at 20° C.) to permit spores to germinate and infect the leaf. The plants were then transferred to a greenhouse set at 20° C. for disease to develop. When disease symptoms were fully expressed on the 1st leaves of untreated plants, infection levels were assessed on a scale of 0 to 100 percent disease severity. Percent disease control was calculated using the ratio of disease severity on treated plants relative to untreated plants. Cucumber seedlings (variety Bush Pickle) were propagated in soil-less Metro mix, with each pot having one plant, and used in the test when 12 to 14 days old. Test plants were inoculated with an aqueous spore suspension of Colletotrichum lagenarium 24 hr after fungicide treatments. After inoculation the plants were kept in a dew room at 22° C. with 100% relative humidity for 48 hr to permit spores to germinate and infect the leaf. The plants were then transferred to a growth room set at 22° C. for disease to develop. Fungicide formulation, application and disease assessment on the sprayed leaves followed the procedures as described in the Example A.

Row | SMILES | pest or weed control at 100 ppm (Uncinula necator) [%] | pest or weed control at 100 ppm (Cercospora beticola) [%] | pest or weed control at 100 ppm (Rhyncosporium secalis) [%] | pest or weed control at 100 ppm [1] [%] | Disease Control UNCINE 1 DP (Uncinula necator; 100 ppm) | Disease Control CERCBE 1 DP (Cercospora beticola; 100 ppm) | Disease Control RHYNSE 1 DP (Rhyncosporium secalis; 100 ppm) | Disease Control COLLLA 1 DP ([1]; 100 ppm)
1 | COc1ccnc(C(=O)N[C@H]2CCC[C@H](Cc3ccc(F)cc3F)[C@@H](OC(=O)c3ccco3)[C@H](C)OC2=O)c1OCOC(C)=O [Compound F144] | 0 to 80 | 0 to 80 | 80 to 100 | 80 to 100 |  |  |  | 
2 | COc1ccnc(C(=O)N[C@H]2CCC[C@H](Cc3ccc(F)cc3)[C@@H](OCC3CC3)[C@H](C)OC2=O)c1OCOC(C)=O [Compound F98] |  |  |  |  | A (80-100) | A (80-100) | A (80-100) | A (80-100)
3 | CCOCC(=O)OCOc1c(OC)ccnc1C(=O)N[C@H]1CCC[C@H](CCOC)[C@@H](Oc2ccccc2)[C@H](C)OC1=O [Compound F183] | 80 to 100 | 0 to 80 | 80 to 100 | 80 to 100 |  |  |  | 
4 | COc1ccnc(C(=O)N[C@H]2CCC[C@H](Cc3ccc(F)cc3F)[C@@H](OC(=O)c3ccco3)[C@H](C)OC2=O)c1OCOC(=O)C(C)C [Compound F157] | 80 to 100 | 80 to 100 | 80 to 100 | 80 to 100 |  |  |  | 
5 | COc1ccnc(C(=O)N[C@H]2CCC[C@H](Cc3ccc(F)cc3)[C@@H](OCC(C)C)[C@H](C)OC2=O)c1OCOC(C)=O [Compound F102] | 0 to 80 |  |  | 80 to 100 |  |  |  | 
6 | COc1ccnc(C(=O)N[C@H]2CCC[C@H](CC3CCCCC3)[C@@H](OCC(C)C)[C@H](C)OC2=O)c1OCOC(C)=O [Compound F113] | 0 to 80 | 80 to 100 | 80 to 100 |  |  |  |  | 
7 | COc1ccc(C[C@H]2CCC[C@H](NC(=O)c3nccc(OC)c3OCOC(C)=O)C(=O)O[C@@H](C)[C@@H]2Oc2ccccc2)cc1 [Compound F114] |  | 80 to 100 | 80 to 100 | 80 to 100 |  |  |  | 
8 | COc1ccnc(C(=O)N[C@H]2CCC[C@H](Cc3ccc(C)cc3)[C@@H](OCC(C)C)[C@H](C)OC2=O)c1OCOC(C)=O [Compound F126] |  | 80 to 100 | 80 to 100 | 80 to 100 |  |  |  | 
9 | CCOCC(=O)OCOc1c(OC)ccnc1C(=O)N[C@H]1CCC[C@H](CC2CCCCC2)[C@@H](OCC(C)C)[C@H](C)OC1=O [Compound F175] | 0 to 80 | 80 to 100 | 80 to 100 |  |  |  |  | 
10 | COc1ccnc(C(=O)N[C@H]2CCC[C@H](Cc3ccccc3)[C@@H](OC3CCCC3)[C@H](C)OC2=O)c1OCOC(C)=O [Compound F110] | 80 to 100 |  | 80 to 100 |  |  |  |  | 
11 | COc1ccnc(C(=O)N[C@H]2CCC[C@H](Cc3ccccc3)[C@@H](OCC(C)C)[C@H](C)OC2=O)c1OCOC(=O)C(C)C [Compound F151] |  | 80 to 100 |  | 80 to 100 |  |  |  | 
12 | COc1ccnc(C(=O)N[C@H]2CCC[C@H](CCBr)[C@@H](Oc3ccccc3)[C@H](C)OC2=O)c1OC(C)=O [Compound F80] | 0 to 80 | 80 to 100 |  | 80 to 100 |  |  |  | 
13 | CCOCC(=O)OCOc1c(OC)ccnc1C(=O)N[C@H]1CCC[C@H](Cc2ccc(F)cc2)[C@@H](OCC(C)C)[C@H](C)OC1=O [Compound F168] | 80 to 100 |  |  | 80 to 100 |  |  |  | 
14 | COc1ccc(C[C@H]2CCC[C@H](NC(=O)c3nccc(OC)c3OCOC(C)=O)C(=O)O[C@@H](C)[C@@H]2OCC(C)C)cc1 [Compound F118] |  | 80 to 100 | 80 to 100 | 80 to 100 |  |  |  | 
15 | CCCO[C@@H]1[C@@H](Cc2ccc(OC)cc2)CCC[C@H](NC(=O)c2nccc(OC)c2OCOC(C)=O)C(=O)O[C@H]1C [Compound F119] |  | 80 to 100 | 80 to 100 | 80 to 100 |  |  |  | 
